Source: article PMC9993459, “A novel selective spleen tyrosine kinase inhibitor SKI-O-703 (cevidoplenib) ameliorates lupus nephritis and serum-induced arthritis in murine models” (Clinical and Experimental Immunology, 2022)
pIC50: −log10 of the molar value.

Tests used:
FGFR1 = FGFR1 (Homo sapiens, UniProt P11362); test: Kinase assay (LANCE Ultra TR-FRET), FGFR1; assay type: biochemical
Experimental: (§1) Kinase assays were conducted in 384-well plates using LANCE ultra 66 time-resolved fluorescence resonance energy transfer (TR-FRET) methods, according to the manufacturer’s instructions (Perkin-Elmer). In brief, each kinase was pre-incubated with a serially diluted compound for 30 min, incubated with ULight poly-GT peptide substrate and ATP for up to 1 h. Thirty minutes after adding Eu-labeled anti-phosphopeptides Ab diluted in LANCE Detection Buffer, LANCE signals were measured with an EnVision multilabel reader (Perkin-Elmer).

Pyk2 = Pyk2 (Homo sapiens, UniProt Q14289); test: Kinase assay (LANCE Ultra TR-FRET), Pyk2; assay type: biochemical
Pyk2, sequence (Q14289 whole entry, species assumed): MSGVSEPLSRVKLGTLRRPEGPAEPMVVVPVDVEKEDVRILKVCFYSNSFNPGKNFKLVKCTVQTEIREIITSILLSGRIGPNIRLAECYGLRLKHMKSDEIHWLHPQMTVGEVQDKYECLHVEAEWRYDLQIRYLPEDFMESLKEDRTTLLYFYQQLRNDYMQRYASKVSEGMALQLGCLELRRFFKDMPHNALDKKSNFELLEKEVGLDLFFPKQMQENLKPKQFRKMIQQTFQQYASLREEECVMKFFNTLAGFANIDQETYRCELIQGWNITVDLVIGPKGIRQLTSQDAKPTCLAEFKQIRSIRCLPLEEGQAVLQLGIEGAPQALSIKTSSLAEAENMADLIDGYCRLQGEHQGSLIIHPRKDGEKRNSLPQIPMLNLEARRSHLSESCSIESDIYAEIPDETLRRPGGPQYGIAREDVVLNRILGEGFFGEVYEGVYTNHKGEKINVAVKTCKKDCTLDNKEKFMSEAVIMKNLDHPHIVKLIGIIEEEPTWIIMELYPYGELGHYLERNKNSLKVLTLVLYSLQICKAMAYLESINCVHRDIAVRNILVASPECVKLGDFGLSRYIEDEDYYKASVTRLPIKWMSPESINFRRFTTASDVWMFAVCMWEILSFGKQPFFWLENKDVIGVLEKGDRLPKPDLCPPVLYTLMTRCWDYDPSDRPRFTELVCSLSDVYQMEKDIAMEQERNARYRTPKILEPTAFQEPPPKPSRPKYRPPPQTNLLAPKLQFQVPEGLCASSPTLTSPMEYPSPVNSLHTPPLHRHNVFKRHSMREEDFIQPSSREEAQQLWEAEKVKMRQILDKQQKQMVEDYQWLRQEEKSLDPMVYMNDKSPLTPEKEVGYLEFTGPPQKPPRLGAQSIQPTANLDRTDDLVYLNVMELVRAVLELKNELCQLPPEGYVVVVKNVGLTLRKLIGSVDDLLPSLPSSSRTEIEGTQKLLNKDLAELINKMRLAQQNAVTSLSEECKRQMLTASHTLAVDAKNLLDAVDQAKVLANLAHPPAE
Experimental: as §1

human primary B cells = test: IgM, IgG and IL-6 secretion by stimulated human primary B cells (ELISA); assay type: cell-based; details: TLR9 agonist plus IL-2 or IFN-α; efficacy comparable to R406
Experimental: Human CD19^+ B cells (Lonza) were pre-treated with inhibitors for 1 h and stimulated for 24 h with 50 nM CpG ODN 2006 plus 10 ng/ml IL-2 or 1 μM CpG ODN 2006 plus 20 ng/ml IFN-α. Culture supernatants were assayed by ELISA to detect secreted IgG, IgM, and IL-6, according to the manufacturer’s instructions.
Figure 2: in vitro effects of SKI-O -703 on the proliferation, survival, and differentiation of B cells. Mouse primary B cells were labeled with CP670, and stimulated with either anti-IgM mAb, CD40L and IL-4 (A) or LPS (B) for 72 h in the presence or absence of SKI-O-703 and tofacitinib at the indicated concentrations; they were then assayed by FACS. (C and D) Mouse primary B cells were cultured as in A and B for 24 h, stained with Annexin V and 7-AAD, and assayed by FACS. Representative FACS profiles and graphs displaying mean Annexin V-positivity are shown. (E) Human primary B cells were stimulated with CpG ODN plus IL-2 (to detect IgM and IgG) or CpG ODN 2006 plus IFN-α (to detect IL-6) in the presence or absence of inhibitors. The culture supernatants were assayed by ELISA. Graphs are expressed as % positivity relative to the controls (without inhibitor). The data are representative of 2–3 independent experiments. *P < 0.05, **P < 0.01, and ***P < 0.001, compared with vehicle control by two-tailed unpaired Students t-tests.

NZB/W F1 mice = test: NZB/W mouse model of SLE / lupus nephritis, oral dosing; assay type: in vivo
Experimental: NZB/W female mice aged 18 weeks were assigned to four groups by distributing mice by body weight and anti-dsDNA IgG titer equivalently across the groups. Each group of mice was administered orally with 42 mg per kg body weight (mpk) of SKI-O-703 dissolved in 50 mM citric acid, 84 mpk of SKI-O-703, 30 mpk of tofacitinib (Selleckchem) dissolved in 0.5% carboxymethyl cellulose (Sigma Aldrich) containing 0.025% Tween 20, or a mixture of the two vehicles. The drugs were given once daily up to 34 weeks of age. Body weight was measured every 2 weeks and serum was collected every 4 weeks. At the termination of the experiments (34 weeks of age), serum, urine, spleen, BM, and kidneys were removed post mortem and assayed by histopathological and biochemical methods as below. Levels of blood urea nitrogen (BUN) and creatinine were measured by Knotus (Incheon, Korea).
Kidneys removed from the NZB/W mice were fixed in 4% paraformaldehyde, embedded in paraffin, sectioned at 3 μm thickness, and stained with periodic acid-Schiff (PAS) and hematoxylin (Sigma Aldrich). […] Glomerular size was measured using Image J software. To assess the glomerular size and hypercellularity of each mouse, more than 20 glomeruli per mouse were individually examined and averaged.
Kidneys and spleens of NZB/W mice were embedded in OCT compound (Sakura Finetek, Torrance, CA, USA) and snap-frozen in liquid nitrogen. Frozen sections were fixed in acetone and blocked with 10% normal donkey serum (Sigma Aldrich). Kidney sections were stained with a 1:200 dilution of anti-IgG-biotin (Sigma Aldrich), anti-IgM-biotin (Southern Biotech) and anti-C3-biotin (Bioss), followed by reaction with 1:200-dilution of streptavidin-cy3 (Invitrogen). Spleen sections were stained with anti-GL7-FITC, anti-CD4-APC, and anti-IgD-PE (all from BD Biosciences or eBioscience). Fluorescence images were acquired using a TCS SP5 confocal microscope (Leica). The area of GCs composed with GL7^+ cells per image was calculated using ImageJ software (NIH, Bethesda, MD, USA).
Titers of anti-dsDNA IgG Ab were measured by ELISA, as described previously. In brief, sera were diluted 1/10 000 to 1/50 000 in PBS and applied to immunosorbent plates (Nunc) precoated with 5 μg/ml poly-L-lysine and 5 μg/ml thymic DNA (Sigma Aldrich). The serum containing the highest titer of anti-dsDNA IgG was serially diluted and used as standard. The plates were incubated with anti-mouse IgG-biotin (Sigma Aldrich) and streptavidin-HRP (BD Biosciences). The concentration of albumin in urine was measured by quantitative ELISA using a mouse albumin ELISA kit (Bethyl), according to the manufacturer’s instructions. The concentration of serum B-cell activating factor of the TNF family (BAFF) was quantitated using a BAFF/BLys/TNFSF13B ELISA Kit (R&D Systems).
Single-cell suspensions of spleen and LN cells were prepared as previously described. Joint tissues from hind paws of KSTA mice were dissected free of soft tissue and bones, digested with 100 μg/ml Liberase (Roche) for 45 min at 37 °C, and filtered through a 70-μm-pore cell strainer (SPL Life Sciences) to prepare single cell suspensions of synovial infiltrates. The single cell suspensions were stained with an appropriate combination of mAbs and analyzed by FACS. The mAbs used were: CD138-PE, B220-PerCP or -APC-cy7, FAS-PE, CD19-PerCP or -APC, CD21-FITC or -APC, CD43-APC, CD23-PE-cy7, CD8a-PE, CD25-APC-cy7, CXCR5-biotin, GL7-FITC, CD45.2-FITC, CD27-FITC, Ki-67-FITC, Gr-1-FITC, CD4-FITC or -APC-cy7, phospho-Syk-PE, CD11b-PE or -PerCP, PD-1-APC, CD44-APC-cy7, and F4/80-PerCP mAbs (all from BD Biosciences, eBioscience or Biolegend). Streptavidin-PerCP was purchased from BD Biosciences.
Splenic CD19^+ B cells from NZB/W mice were sorted by MACS, and lysed with Trizol reagent (Invitrogen) followed by standard methods of total RNA purification. The RNA was assayed by RT and quantitative PCR as described. […]

[1] = 84 mpk oral once daily, 18-34 weeks of age
[2] = high dose (84 mpk), 34 weeks, FACS

FGFR1, sequence (P11362 22-822, species assumed): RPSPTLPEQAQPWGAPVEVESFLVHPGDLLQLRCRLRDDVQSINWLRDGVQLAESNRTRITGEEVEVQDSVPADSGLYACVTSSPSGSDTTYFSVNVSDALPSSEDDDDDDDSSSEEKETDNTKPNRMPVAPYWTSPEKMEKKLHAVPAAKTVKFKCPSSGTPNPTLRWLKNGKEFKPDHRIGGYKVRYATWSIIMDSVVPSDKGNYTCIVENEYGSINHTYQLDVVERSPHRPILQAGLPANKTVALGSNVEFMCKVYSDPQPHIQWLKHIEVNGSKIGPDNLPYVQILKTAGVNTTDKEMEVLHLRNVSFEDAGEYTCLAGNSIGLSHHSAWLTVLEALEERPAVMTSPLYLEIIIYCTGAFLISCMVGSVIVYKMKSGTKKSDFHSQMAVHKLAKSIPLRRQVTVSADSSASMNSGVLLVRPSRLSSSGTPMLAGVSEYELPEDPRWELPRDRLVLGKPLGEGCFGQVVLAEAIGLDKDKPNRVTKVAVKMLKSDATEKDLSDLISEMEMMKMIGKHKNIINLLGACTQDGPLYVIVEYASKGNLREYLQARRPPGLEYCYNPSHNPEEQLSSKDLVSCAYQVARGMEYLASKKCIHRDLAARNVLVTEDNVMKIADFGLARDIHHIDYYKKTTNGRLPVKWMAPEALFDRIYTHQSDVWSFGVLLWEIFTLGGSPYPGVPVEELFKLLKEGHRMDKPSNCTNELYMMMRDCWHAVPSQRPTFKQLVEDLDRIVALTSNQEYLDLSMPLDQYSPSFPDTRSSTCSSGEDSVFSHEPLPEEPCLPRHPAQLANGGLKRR

Compound | Ratio to Syk (FGFR1) (FGFR1; IC50 ratio to Syk) | pIC50 (FGFR1; kinase activity, TR-FRET) | Ratio to Syk (Pyk2) (Pyk2; IC50 ratio to Syk) | pIC50 (Pyk2; kinase activity, TR-FRET) | Production of IgM, IgG and IL-6 (human primary B cells) | Concentrations of BUN and creatinine (NZB/W F1 mice; 42 mpk (low-dose), 34 weeks of age) | Rise of serum anti-dsDNA IgG Ab level (NZB/W F1 mice; 42 mpk oral once daily) | Glomerular IgM and C3 staining intensities (NZB/W F1 mice; 84 mpk (high dose)) | Concentrations of BUN and creatinine (NZB/W F1 mice; 84 mpk (high-dose), 34 weeks of age) | Body weights (NZB/W F1 mice; [1]) | Spleen weights (NZB/W F1 mice; [1]) | Rise of serum anti-dsDNA IgG Ab level (NZB/W F1 mice; 84 mpk oral once daily, P < 0.01 by two-way ANOVA) | Concentration of urinary albumin (NZB/W F1 mice; 84 mpk, 34 weeks of age, vehicle mean 742.9 mg/dl) | Number of splenic T cells (NZB/W F1 mice; [2]) | Total spleen cells (NZB/W F1 mice; [2]) | CXCR5+PD-1+ Tfh cells (NZB/W F1 mice; high dose (84 mpk), spleen) | Splenic follicular, GC B cells and plasma cells (NZB/W F1 mice; high dose (84 mpk), vs vehicle controls) | Level of serum BAFF (NZB/W F1 mice; high dose, ELISA) | BAFF receptor expression in splenic B cells (NZB/W F1 mice; high dose, quantitative RT-PCR) | BM hematopoiesis (NZB/W F1 mice; long-term treatment (16 weeks))
Cc1nn(-c2ccnc(Nc3ccc4c(c3)c(C(=O)C3CC3)cn4C)n2)cc1CN1C[C@H](O)CO1 [SKI-O-592] | 2753 | 4.77 | 115 | 6.15 | inhibited the production of IgM, IgG, and IL-6 | – | – | – | – | – | – | – | – | – | – | – | – | – | – | –
CS(=O)(=O)O.CS(=O)(=O)O.Cc1nn(-c2ccnc(Nc3ccc4c(c3)c(C(=O)C3CC3)cn4C)n2)cc1CN1C[C@H](O)CO1 [SKI-O-703, (S)-cyclopropyl(5-((4-(4-((4-hydroxyisoxazolidin-2-yl)methyl)-3-methyl-1H-pyrazol-1-yl)pyrimidin-2-yl)amino)-1-methyl-1H-indol-3-yl)methanone dimesylate] | – | – | – | – | – | significantly lowered | did not have the same effect, and even temporarily elevated the Ab titer | significantly reduced | significantly lowered | without significantly affecting body weights | significantly reduced spleen weights | dramatically attenuated | markedly reduced | not significantly altered | significantly less numerous | reduced in number | significantly less numerous | also reduced | reduced level | appeared not to interfere with BM hematopoiesis
